Measured values as given in patent US8133917B2, “Pterostilbene as an agonist for the peroxisome proliferator-activated receptor alpha isoform” (The United States of America as represented by the …, priority 2004, dated 2012).

Legend:
PPARα = biological target: T1, PPARα (Rattus norvegicus, UniProt P37230); experiment: Activation of PPARα in H4IIEC3 cells transfected with PPRE-AB-luciferase reporter gene; type: cell-based
T1 construct: endogenous in cells; host or cells: H4IIEC3 rat hepatoma cells
T1 sequence (P37230 1-468): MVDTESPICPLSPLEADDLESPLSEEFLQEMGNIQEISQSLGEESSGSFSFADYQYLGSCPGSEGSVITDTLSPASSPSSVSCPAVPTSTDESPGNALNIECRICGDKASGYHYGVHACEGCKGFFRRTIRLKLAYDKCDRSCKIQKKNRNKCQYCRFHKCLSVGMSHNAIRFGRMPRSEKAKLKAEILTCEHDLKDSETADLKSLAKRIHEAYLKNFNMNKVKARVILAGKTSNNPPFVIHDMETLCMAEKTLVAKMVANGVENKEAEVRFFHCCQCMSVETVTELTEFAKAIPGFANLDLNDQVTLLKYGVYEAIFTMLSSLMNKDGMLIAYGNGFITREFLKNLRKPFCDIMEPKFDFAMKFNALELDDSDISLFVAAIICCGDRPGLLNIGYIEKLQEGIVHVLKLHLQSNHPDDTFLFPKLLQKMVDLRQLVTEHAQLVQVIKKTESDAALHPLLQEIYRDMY

[1] = Hamster feeding study: plasma lipoprotein cholesterol, glucose, weights; type: in vivo, golden Syrian hamsters; settings: hamsters; for plasma LDL cholesterol lower compared to control group / total plasma cholesterol lower compared to control group: 25 mg/kg diet
Description: Male golden Syrian hamsters (Charles River, Wilmington, Mass.), initial weight ranging from 34-41 g, were fed a powdered stock diet (Rodent Lab Chow 5001, Purina Mills, St. Louis, Mo.) for 7 days. The animals were placed in individual wire-bottom cages in a room kept at 20-22° C., 60% rh and 12 h light and dark cycle. Following the initial 7 day period, 8-10 animals were randomly assigned from a weight sorted list to each of five test diets (α-cellulose control and test substance). Food intake was measured twice each week and body weights were monitored once a week. After 21 days on the treatment diets, the animals were killed, blood was collected and analyzed for total cholesterol by the cholesterol oxidase method and lipoprotein cholesterol, by size exclusion chromatography, as previously described (German et al. 1996. Nutrition Res. 16: 1239-1249). All animal procedures were approved by the Animal Care and Use Committee, Western Regional Research Center, USDA, Albany, Calif. and conformed to the principles in “Guide for the Care and Use of Laboratory Animals” (Committee on Care and Use of Laboratory Animals 1985). Plasma blood glucose was determined using a blood glucose meter (Fast Glucose Meter-Precision Xtra, MediSense, Bedford, Mass., USA). Diets were prepared by dissolving powdered cholesterol into warmed butterfat, followed by the addition of corn and fish oil. The small amounts of test ingredients were dissolved in about 50 ml of ethanol and added to the stirring dry ingredients. The liquid fat was also added to the dry ingredients while stirring. Differences between treatments were tested by two-tailed t-test assuming equal variance, and were considered significant at p<0.05.

[2] = as above; type: in vivo, golden Syrian hamsters; settings: hamsters; plant materials at about 10% of total diet; data not shown
H4IIEC3 cells = experiment: Toxicity to H4IIEC3 cells during the reporter assay; type: cell-based, rat; settings: 100 and 300 μM

| PPARα activation (luciferase activity) (PPARα; 100 μM, H4IIEC3 cells) [relative luciferase units] | maximal luciferase response compared to control (PPARα; 100 μM, H4IIEC3 cells, 30 hr, n=4) | agonist / activator of PPARα (PPARα; H4IIEC3 cells) | Final Weights: Body wt (AVG) ([1]; 25 ppm in diet, 21 days) [g] | Final Weights: Liver wt (AVG) ([1]; 25 ppm in diet, 21 days) [g] | Liver/Body (AVG) ([1]; 25 ppm in diet, 21 days) | SMILES | plasma LDL cholesterol lower compared to control group [1] [%] | total plasma cholesterol lower compared to control group [1] [%] | LDL/HDL (AVG) ([1]; 25 ppm in diet, 21 days) | Plasma Lipoprotein Cholesterol HDL (AVG) ([1]; 25 ppm in diet, 21 days) [mg/dL] | Plasma Lipoprotein Cholesterol LDL (AVG) ([1]; 25 ppm in diet, 21 days) [mg/dL] | Plasma Lipoprotein Cholesterol Total (AVG) ([1]; 25 ppm in diet, 21 days) [mg/dL] | Plasma Lipoprotein Cholesterol VLDL (AVG) ([1]; 25 ppm in diet, 21 days) [mg/dL] | Plasma glucose (AVG) ([1]; 25 ppm in diet, 21 days) | induction of luciferase activity (PPARα; all the concentrations tested (1, 10, 100, 300 μM)) | lowering of plasma cholesterol levels versus freeze-dried tomato and eggplant materials [2] | toxicity to H4IIEC3 cells (H4IIEC3 cells) |
| --- | --- | --- | --- | --- | --- | --- | --- | --- | --- | --- | --- | --- | --- | --- | --- | --- | --- |
| 19460±1466 | about 5 fold | acts as an agonist of PPARα |  |  |  | CC(C)(Oc1ccc(C2CC2(Cl)Cl)cc1)C(=O)O (stereo not drawn) [ciprofibrate] |  |  |  |  |  |  |  |  |  |  |  |
|  |  |  | 110.5 | 7.9 | 7.1 | COc1cc(/C=C/c2ccc(O)cc2)cc(OC)c1 [pterostilbene] | 29 | 18 | 1.8 | 137.0 | 228.1 | 447.8 | 82.7 | 185.1 |  |  |  |
|  |  |  |  |  |  | COc1ccc(C=Cc2cc(OC)cc(OC)c2)cc1 [resveratrol trimethylether] |  |  |  |  |  |  |  |  | only slightly |  |  |
|  |  |  | 109.5 | 7.6 |  | Oc1ccc(C=Cc2cc(O)cc(O)c2)cc1 [resveratrol] | 20 | 14 | 2.2 | 127.1 | 257.4 | 468.2 | 83.6 | 191 |  | more effective than the plant materials | toxic |
